Test results reported in US20230382920A1, “SHMT Inhibitors” (The Trustees of Princeton University, priority 2020, published 2023).
Read-outs that look alike come from different tables or passages of the source.

Test: Pharmacokinetics study of KDG-0388 in male CD1 mice (Example 2)
Assay type: in vivo
Settings: for F: bioavailability vs 1 mg/kg IV; for MRT inf: read-out: MRTInf_obs
Description: A standard PK study of KDG-0388 was performed in male CD1 mice dosed with a single oral or intraperitoneal dose of KDG-0388. The parameters of the PK study are described in Table 10. Dosing solutions were freshly made prior to use, and were in the form of a suspension. […] For IV and IP, after collection, plasma samples from the same time point were pooled, and the pooled samples were analyzed by LC/MS/MS.
The desired serial concentrations of working solutions were achieved by diluting stock solution of analyte with 50% acetonitrile in water solution. 5 μL of working solutions (2, 4, 10, 20, 100, 400, 2000, 4000 ng/mL) were added to 10 μL of blank CD1 mouse plasma to achieve calibration standards of 1-2000 ng/mL (1, 2, 5, 10, 50, 200, 1000, 2000 ng/mL) in a total volume of 15 μL. Five quality control (QC) samples at 2 ng/mL, 5 ng/mL, 50 ng/mL, 800 ng/mL and 1600 ng/mL for plasma were prepared independently of those used for the calibration curves. These QC samples were prepared on the day of analysis in the same way as calibration standards.
15 μL standards, 15 μL QC samples and 15 μL unknown samples (10 μL plasma with 5 μL blank solution) were added to 200 μL of acetonitrile containing IS mixture for precipitating protein. Then, the samples were vortexed for 30 seconds. After centrifugation at 4 degrees Celsius, 4000 rpm for 15 minutes, the supernatant was diluted three times with water. 25 μL of diluted supernatant was injected into the LC/MS/MS system for quantitative analysis.
BLOQ=Below quantifiable limit of 1 ng/mL. PK parameters were estimated by non-compartmental model using WinNonlin 6.1. The PO bioavailability (F %) was calculated as following:
AUClast-PO/AUCINF-PO>80%: F=(AUCINF-PO*DoseIV)/(mean AUCINF-IV*DosePO) AUClast-PO/AUCINF-PO≤80% or AUCINF was not available: F=(AUClast-PO*DoseIV)/(mean AUClast-IV*DosePO).
The IP bioavailability (F %) was calculated as following:
AUClast-IP/AUCINF-IP>80%: F=(AUCINF-IP*DoseIV)/(mean AUCINF-IV*DoseIP) AUClast-IP/AUCINF-IP≤80% or AUCINF was not available: F=(AUClast-IP*DoseIV)/(mean AUClast-IV*DoseIP).

[1] = male, mouse, plasma, CD1 mice, 1 mg/kg IV
[2] = male, mouse, CD1 mice, plasma, 1 mg/kg IV, read-out: Concentration IV_Mean
[3] = mouse, plasma, male CD1 mice, 200 mg/kg IP
[4] = mouse, plasma, male CD1 mice, 200 mg/kg PO
[5] = mouse, male CD1 mice, plasma, 200 mg/kg IP, read-out: Concentration IP_Mean
[6] = mouse, male CD1 mice, plasma, 200 mg/kg PO, read-out: Concentration PO_Mean

AUC_%Extrap_obs (CD1 mice, 1 mg/kg IV): 3.44%
AUClast/D (CD1 mice, 1 mg/kg IV): 76.6 kg·ng·h/mL/mg
Cl_obs (CD1 mice, 1 mg/kg IV): 210 mL/min/kg
Vss_obs (CD1 mice, 1 mg/kg IV): 8.80 L/kg
Concentration IV_Mean (CD1 mice, plasma, 1 mg/kg IV, 8 h): BLOQ
AUC_%Extrap_obs (male CD1 mice, 200 mg/kg IP): 6.08%
AUClast/D (male CD1 mice, 200 mg/kg IP): 136 kg·ng·h/mL/mg
F (male CD1 mice, 200 mg/kg IP): 183%
AUC_%Extrap_obs (male CD1 mice, 200 mg/kg PO): 0.218%
AUClast/D (male CD1 mice, 200 mg/kg PO): 16.9 kg·ng·h/mL/mg
F (male CD1 mice, 200 mg/kg PO): 21.4%
Concentration PO_Mean (male CD1 mice, plasma, 200 mg/kg PO, 24 h): BLOQ
AUC(0-inf) [1]: 79.3 ng·h/mL
AUC(0-t) [1]: 76.6 ng·h/mL
C0 [1]: 325 ng/mL
half-life [1]: 1.11 h
MRT inf [1]: 0.698 h
concentration at 0.083 h (male, mouse, CD1 mice, plasma, 1 mg/kg IV, 0.083 h, read-out: Concentration IV_Mean): 186 ng/mL
concentration at 0.25 h [2]: 60.6 ng/mL
concentration at 0.5 h [2]: 24.9 ng/mL
concentration at 1 h [2]: 11.8 ng/mL
concentration at 2 h [2]: 4.86 ng/mL
concentration at 4 h [2]: 1.71 ng/mL
AUC(0-inf) [3]: 29000 ng·h/mL
AUC(0-t) [3]: 27200 ng·h/mL
Cmax [3]: 7520 ng/mL
Tmax [3]: 0.25 h
half-life [3]: 7.88 h
MRT inf [3]: 6.33 h
AUC(0-inf) [4]: 3400 ng·h/mL
AUC(0-t) [4]: 3390 ng·h/mL
Cmax [4]: 719 ng/mL
Tmax [4]: 2 h
half-life [4]: 1.69 h
MRT inf [4]: 3.53 h
concentration at 0.25 h [5]: 7520 ng/mL
concentration at 0.5 h [5]: 6170 ng/mL
concentration at 1 h [5]: 5460 ng/mL
concentration at 2 h [5]: 3910 ng/mL
concentration at 4 h [5]: 2230 ng/mL
concentration at 8 h (mouse, male CD1 mice, plasma, 200 mg/kg IP, 8 h, read-out: Concentration IP_Mean): 633 ng/mL
concentration at 16 h [5]: 247 ng/mL
concentration at 24 h (mouse, male CD1 mice, plasma, 200 mg/kg IP, 24 h, read-out: Concentration IP_Mean): 155 ng/mL
concentration at 0.25 h [6]: 215 ng/mL
concentration at 0.5 h [6]: 347 ng/mL
concentration at 1 h [6]: 475 ng/mL
concentration at 2 h [6]: 719 ng/mL
concentration at 4 h [6]: 417 ng/mL
concentration at 8 h (mouse, male CD1 mice, plasma, 200 mg/kg PO, 8 h, read-out: Concentration PO_Mean): 84.3 ng/mL
concentration at 16 h [6]: 3.04 ng/mL
Structure (SMILES): Cc1n[nH]c2c1C(c1cc(C#C[C@H]3C[C@@H](NC(=O)OC(C)(C)C)C3)cc(CO)c1)(C(C)C)C(C#N)=C(N)O2 (stereo partly drawn) [KDG-0388, tert-butyl N-[(1s,3s)-3-[2-(3-[6-amino-5-cyano-4-isopropyl-3-methyl-1H-pyrano[2,3-c]pyrazol-4-yl]-5-(hydroxymethyl)phenyl)ethynyl]cyclobutyl]carbamate]
clinical symptoms (male CD1 mice, single dose 200 mg/kg PO or 200 mg/kg IP, entire experiment): No abnormal clinical symptoms were observed
